Measurements: paper PMC11680018, “Study of Cytotoxicity of Spiro-Fused [3-Azabicyclo[3.1.0]hexane]oxindoles and Cyclopropa[a]pyrrolizidine-oxindoles Against Tumor Cell Lines” (Pharmaceuticals, 2024)
Several values for one entry are separate records, joined by “and”; a condition that tells them apart may be missing. Identical values can stand only once. Like-named read-outs stand apart in the source and are kept apart here.

Experiments:
[1] = system: K562, Jurkat, HeLa, Sk-mel-2, MCF-7 and CT26 cell lines; test: MTS cell proliferation assay, panel of cell lines (summary statements); assay type: cell-based
Method: Cancer cell lines are valuable in vitro model systems that are widely used in cancer research and drug discovery. Their use is mainly linked to their possibility to provide for experimental purposes an unlimited source of biological material. Here, the 24 and 72 h in vitro MTS assay was used to determine the antiproliferative activity of synthesized spiro-fused cyclopropa[a]pyrrolizidine-2,3′-oxindoles and [3-azabicyclo[3.1.0]hexane]-oxindoles against human erythroleukemia (K562), acute T cell leukemia (Jurkat), cervical carcinoma (HeLa), melanoma (Sk-mel-2), breast cancer adenocarcinoma (MCF-7) as well as mouse colon carcinoma (CT26) cell lines. […] The full results of these investigations are presented in the Supporting Information Figures S1–S6. […] An evaluation of the cytotoxicity of the selected compounds towards normal cells (peripheral blood mononuclear cells) was performed additionally to understand their respective relative selectivities. The selectivity index was obtained using the ratio of measured cytotoxicity between the PBMC cells and each of the cancer cell lines, and the results are presented in Table 3.
The human erythroleukemia (K-562), cervical carcinoma (HeLa) as well as mouse colon carcinoma (CT26) cell lines were obtained from the Bank of Cell Cultures of the Institute of Cytology of the Russian Academy of Sciences; the human melanoma (Sk-mel-2) cell line was obtained from the Bank of Cell Cultures of the Institute of Cytology and Genetics, Siberian Branch of the Russian Academy of Sciences. The acute T cell leukemia (Jurkat) cell line was obtained from the Bank of Cell Cultures of the Institute of Immunology of the Russian Academy of Medical Sciences. The peripheral blood mononuclear cells (PBMC) were isolated from the blood of healthy donors. K-562, Jurkat, MCF-7, PBMC and CT26 cells were grown on RPMI medium (Hyclone, GE Healthcare Life Sciences, Logan, UT, USA) supplemented with 10% (v/v) fetal bovine serum (Hyclone, GE Healthcare Life Sciences, Logan, UT, USA) and gentamicin (Sigma-Aldrich, St. Louis, MO, USA) at 37 °C in a humidified atmosphere with 5% CO2. HeLa and Sk-mel-2 cells were cultured with the same supplements and conditions in DMEM medium (Hyclone, GE Healthcare Life Sciences, Logan, UT, USA).
To evaluate the in vitro toxicity of the compounds synthesized, cells were seeded into 96-well plates at a density of 5 × 10^3 cells per well. On the next day, the tested compounds were added to the wells at concentrations ranging from 1 to 30 μg/mL, followed by incubation for 1 and 3 days. Cell proliferation was determined by adding 20 μL of MTS reagent (BioVision, Milpitas, CA, USA) stock solution per well. The plates were incubated for 2 h at 37 °C in a humidified, 5% CO2 atmosphere. The plates were then read at 495 nm using a plate spectrophotometer (Multiskan GO, Thermo Fisher Scientific, Waltham, MA, USA). All samples were measured in triplicate.

[2] = system: human melanoma (Sk-mel-2) cell line; test: Cell motility by scratch test; assay type: cell-based; conditions: 10 μg/mL, 36 h, serum-free DMEM; nontreated cells 69.5 ± 17.2
Method: To assess the potential ability of spiro-fused [3-azabicyclo[3.1.0]hexane]oxindoles 4, 11, 12, 18, 24 and cyclopropa[a]pyrrolizidine-2,3′-oxindole 2 to inhibit metastasis associated with cell motility, a scratch test was performed on the human melanoma (Sk-mel-2) cell line. Different fields were analyzed by bright field, and each scratch area was photographed at 0 and 36 h for non-toxic and fast cell visualization. Nontreated Sk-mel-2 cells filled 69.5 ± 17.2, 41.5 ± 5.3, 59.7 ± 8.1, 49.3 ± 5.3, 43.0 ± 12.6, 26.1 ± 2.5 and 55.9 ± 8.6% of the scratched strip while under treatment with spiro-fused oxindole derivatives 2, 4, 11, 12, 18 and 24 cells, respectively.
Cells were seeded at a density of 5 × 10^5 cells per dish onto petri dishes and grown to confluency. A 200 μL pipette tip was used to make scratch wounds and detached cells were removed after that by washing with phosphate-buffered saline. Culture media was replaced with serum-free DMEM in order to inhibit cell proliferation. Compounds to be screened were added at a dose of 10 μg/mL to the cultures and incubated for 36 h. Different fields were analyzed by bright field, and each scratch area was photographed at 0 and 36 h. Images were captured using an Axio Observer Z1 confocal microscope (Carl Zeiss MicroImaging GmbH, Jena, Germany). The percent of wound closure in five randomly chosen fields was calculated with ImageJ software, 1.52v.

[3] = system: K562 cells; test: Cell cycle analysis by flow cytometry; assay type: cell-based, human; conditions: 24 h; for K562 cells in SubG1 phase: control 4.5 ± 0.9; for K562 cells in G2/M phase: control 23.1 ± 1.7; for K562 cells in S phase: control 31.9 ± 1.0; for K562 cells in G0/G1 phase: control 40.5 ± 1.3; for Total percentage of K562 cells in the SubG1 and G0/G1 phases: control 45.0%
Excerpt: Since growth inhibition may be a result of cell cycle arrest at a particular point, the specific antiproliferative activity of several cycloadducts was further evaluated by flow cytometry to study their impact on the progression of the cell cycle in K562 cells. The assay utilizes propidium iodide-based staining of DNA content to distinguish and measure the accumulation of cells in each cell cycle phase (SubG, G0/G1, S and G2/M).
The distribution of K562 cells in the G0/G1-, S- and G2/M-phases of the cell cycle was obtained by quantification of DNA content using flow cytometry in DAPI-stained cells. Briefly, cells were seeded at a density of 5 × 10^4 cells per well in 24-well plates. […] After incubation with drugs, the cells were harvested by pipetting. This was followed by treatment with 0.2 mg/mL saponin (Fluka, Waltham, MA, USA) and 0.05 mg/mL DAPI (Thermo scientific, Rockford, IL, USA). After washing, the samples were analyzed using a standard flow cytometer (BD FACSCanto II, Becton Dickinson, San Jose, CA, USA). A total of 10,000 events were acquired for the samples. Data processing was performed using the BD FACSDiva 9.0 software.

[4] = 72 h, range over four cell lines and compounds, read-out: IC50 against the Jurkat, K-562, HeLa and Sk-mel-2 cell lines

| Structure (SMILES) | IC50 [1, 4] | Part of the scratched strip filled by Sk-mel-2 cells [2] | K562 cells in SubG1 phase ([3]; 5 μg/mL) | K562 cells in G2/M phase ([3]; 5 μg/mL) | K562 cells in S phase ([3]; 5 μg/mL) | K562 cells in G0/G1 phase ([3]; 5 μg/mL) | K562 cells in SubG1 phase ([3]; 10 μg/mL) | K562 cells in G2/M phase ([3]; 10 μg/mL) | K562 cells in S phase ([3]; 10 μg/mL) | K562 cells in G0/G1 phase ([3]; 10 μg/mL) | Total percentage of K562 cells in the SubG1 and G0/G1 phases ([3]; 10 μg/mL) | K562 cells in SubG1 phase ([3]; 20 μg/mL) | K562 cells in G2/M phase ([3]; 20 μg/mL) | K562 cells in S phase ([3]; 20 μg/mL) | K562 cells in G0/G1 phase ([3]; 20 μg/mL) | IC50 ([1]; range over cell lines, except for the breast cancer cell line, read-out: IC50 over the tested cell lines) |
| --- | --- | --- | --- | --- | --- | --- | --- | --- | --- | --- | --- | --- | --- | --- | --- | --- |
| CC(C)C1NC2(C(=O)Nc3ccccc32)C2(c3ccccc3)C(c3ccccc3)C12c1ccccc1 (stereo not shown) [Compound 8] | 2 to 10 µM |  | 2.1 ± 0.1% | 9.2 ± 0.3% | 25.7 ± 0.1% | 63.1 ± 0.4% | 4.1 ± 0.2% | 5.9 ± 0.2% | 16.6 ± 0.2% | 73.5% and 73.5 ± 0.5% | 74.0–77.5% | 3.6 ± 0.2% | 7.1 ± 0.1% | 17.0 ± 0.2% | 72.4 ± 0.2% |  |
| CC[C@H](C)C1NC2(C(=O)Nc3ccccc32)C2(c3ccccc3)C(C(=O)OC)C12c1ccccc1 (stereo partly shown) [Compound 4] | 2 to 10 µM | 59.7 ± 8.1% | 4.3 ± 0.2% | 16.5 ± 0.2% | 26.6 ± 0.7% | 52.6 ± 0.7% | 4.8 ± 0.5% | 11.9 ± 0.6% | 26.4 ± 0.3% | 56.9 ± 0.6% |  | 4.9 ± 0.2% | 6.9 ± 0.4% | 17.4 ± 0.4% | 71.2 ± 0.4% |  |
| O=C1Nc2ccc([N+](=O)[O-])cc2C12N1CCCC1C1(c3ccccc3)C(c3ccccc3)C12c1ccccc1 (stereo not shown) [Compound 2] |  | 41.5 ± 5.3% | 5.3 ± 0.3% | 17.4 ± 0.4% | 29.5 ± 0.6% | 47.7 ± 0.5% | 7.7% and 7.7 ± 0.4% | 7.8 ± 0.3% | 15.6 ± 0.4% | 68.8 ± 0.5% | 74.0–77.5% | 5.8 ± 0.3% | 7.3 ± 0.2% | 14.5 ± 0.2% | 72.5 ± 0.5% | 2 µg/mL to 12 µg/mL and 4 µM to 23 µM |
| COC(=O)C1C2(c3ccccc3)C(Cc3ccc(O)cc3)NC3(C(=O)Nc4ccccc43)C12c1ccccc1 (stereo not shown) [Compound 17] |  |  | 2.5 ± 0.3% | 16.7 ± 1.0% | 25.1 ± 0.4% | 55.6 ± 0.3% | 5.3 ± 0.4% | 8.8 ± 0.4% | 14.3 ± 0.1% | 71.5 ± 0.5% | 74.0–77.5% | 1.8 ± 0.2% | 7.2 ± 0.3% | 16.4 ± 0.5% | 74.5 ± 0.8% |  |

More lines, main results first:

| IC50 [1, 4] | Structure (SMILES) | Part of the scratched strip filled by Sk-mel-2 cells [2] | K562 cells in SubG1 phase ([3]; 5 μg/mL) | K562 cells in G2/M phase ([3]; 5 μg/mL) | K562 cells in S phase ([3]; 5 μg/mL) | K562 cells in G0/G1 phase ([3]; 5 μg/mL) | K562 cells in SubG1 phase ([3]; 10 μg/mL) | K562 cells in G2/M phase ([3]; 10 μg/mL) | K562 cells in S phase ([3]; 10 μg/mL) | K562 cells in G0/G1 phase ([3]; 10 μg/mL) | Total percentage of K562 cells in the SubG1 and G0/G1 phases ([3]; 10 μg/mL) | K562 cells in SubG1 phase ([3]; 20 μg/mL) | K562 cells in G2/M phase ([3]; 20 μg/mL) | K562 cells in S phase ([3]; 20 μg/mL) | K562 cells in G0/G1 phase ([3]; 20 μg/mL) | IC50 ([1]; range over cell lines, except for the breast cancer cell line, read-out: IC50 over the tested cell lines) |
| --- | --- | --- | --- | --- | --- | --- | --- | --- | --- | --- | --- | --- | --- | --- | --- | --- |
| 2 to 10 µM | CSCCC1NC2(C(=O)Nc3ccccc32)C2(c3ccccc3)C(c3ccccc3)C12c1ccccc1 (stereo not shown) [Compound 24] | 55.9 ± 8.6% |  |  |  |  |  |  |  |  |  |  |  |  |  |  |
| 2 to 10 µM | NC(=O)CC1NC2(C(=O)Nc3ccccc32)C2(c3ccccc3)C(c3ccccc3)C12c1ccccc1 (stereo not shown) [Compound 18] | 26.1 ± 2.5% | 3.2 ± 0.1% | 14.4 ± 0.5% | 31.4 ± 0.1% | 51.0 ± 0.7% | 3.9 ± 0.2% | 7.0 ± 0.4% | 19.0 ± 0.6% | 70.1 ± 0.5% | 74.0–77.5% | 3.6 ± 0.1% | 8.6 ± 0.3% | 22.8 ± 0.4% | 65.0 ± 0.4% |  |
